Measurements as given in patent US8247211B2, “Glycopeptide antibiotics” (American Cyanamid Company, priority 2001, dated 2012).
Values after ≈ are worked out from the molar mass of the structure shown.

Experiments:
Assay in all cases: In vitro antibacterial evaluation: minimum inhibitory concentration (MIC), broth dilution method
Assay type in all cases: cell-based
Escherichia coli = conditions: 18 hours at 35° C.
Outline: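 NCCLS M7-A2 broth dilution with Mueller-Hinton II, testing 64-0.06 μg/mL antibiotic against 5×10^5 CFU/mL inocula. Test strains include recent methicillin-, penicillin- or vancomycin-resistant clinical isolates. MIC is the lowest concentration preventing growth.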

Staphylococcus sp. = test system: Staphylococcus sp.
Outline: (§1)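 Values are minimum inhibitory concentrations, meaning the smallest antibiotic concentration that stops growth of the organism. They come from broth dilution in Muller-Hinton II […] per NCCLS guidance (M7-A2), using 5×10^5 CFU/mL and concentrations from 64 to 0.06 μg/mL.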

Streptococcus sp. = conditions: 18 hours at 35° C.
Outline: as §1

Enterococcus sp. = conditions: 18 hours at 35° C.
Outline: as §1

[1] = broth dilution, inoculum 5×10^5 CFU/mL

MIC Escherichia coli (ATCC 25922) (Escherichia coli; Escherichia coli (ATCC 25922)): >64 µg/mL | MIC Escherichia coli (GC 4559) (Escherichia coli; Escherichia coli (GC 4559)): >64 µg/mL | MIC Escherichia coli (GC 4560) (Escherichia coli; Escherichia coli (GC 4560)): 32 µg/mL (≈ 20.7 µM) | MIC Staphylococcus aureus (ATCC 29213) (Staphylococcus sp.; strain ATCC 29213): 32 µg/mL (≈ 20.7 µM) | MIC Staphylococcus aureus (GC 1131) (Staphylococcus sp.; strain GC 1131): 32 µg/mL (≈ 20.7 µM) | MIC Staphylococcus aureus (GC 3051) (Staphylococcus sp.; strain GC 3051): 32 µg/mL (≈ 20.7 µM) | MIC Staphylococcus aureus (GC 3053) (Staphylococcus sp.; strain GC 3053): 32 µg/mL (≈ 20.7 µM) | MIC Staphylococcus aureus (GC 4541) (Staphylococcus sp.; strain GC 4541): 32 µg/mL (≈ 20.7 µM) | MIC Staphylococcus aureus (GC 4542) (Staphylococcus sp.; strain GC 4542): 32 µg/mL (≈ 20.7 µM) | MIC Staphylococcus aureus-SMITH (GC 4543) (Staphylococcus sp.; strain GC 4543): 32 µg/mL (≈ 20.7 µM) | MIC Staphylococcus aureus (GC 4544) (Staphylococcus sp.; strain GC 4544): 32 µg/mL (≈ 20.7 µM) | MIC Staphylococcus aureus (GC 4545) (Staphylococcus sp.; strain GC 4545): 32 µg/mL (≈ 20.7 µM) | MIC Coagulase Negative Staphylococcus (GC 4547) (Staphylococcus sp.; strain GC 4547): 32 µg/mL (≈ 20.7 µM) | MIC Coagulase Negative Staphylococcus (GC 4548) (Staphylococcus sp.; strain GC 4548): 16 µg/mL (≈ 10.4 µM) | MIC Coagulase Negative Staphylococcus (GC 4549) (Staphylococcus sp.; strain GC 4549): 32 µg/mL (≈ 20.7 µM) | MIC Coagulase Negative Staphylococcus (GC 4551) (Staphylococcus sp.; strain GC 4551): 32 µg/mL (≈ 20.7 µM) | MIC Coagulase Negative Staphylococcus (GC 6257) (Staphylococcus sp.; strain GC 6257): 16 µg/mL (≈ 10.4 µM) | MIC Streptococcus agalactiae (GC 4564) (Streptococcus sp.; Streptococcus agalactiae (GC 4564)): 0.12 µg/mL (≈ 0.0777 µM) | MIC Streptococcus pneumoniae (ATCC 6301) (Streptococcus sp.; Streptococcus pneumoniae (ATCC 6301)): <0.06 µg/mL | MIC Streptococcus pneumoniae (GC 1894) (Streptococcus sp.; Streptococcus pneumoniae (GC 1894)): <0.06 µg/mL | MIC Streptococcus pneumoniae (GC 4565) (Streptococcus sp.; Streptococcus pneumoniae (GC 4565)): <0.06 µg/mL | MIC Streptococcus pyogenes (GC 4563) (Streptococcus sp.; Streptococcus pyogenes (GC 4563)): 0.25 µg/mL (≈ 0.162 µM) | MIC Streptococcus agalactiae (GC 4564) (Streptococcus sp.; [1]): 0.12 µg/mL (≈ 0.0777 µM) | MIC Streptococcus pneumoniae (ATCC 6301) (Streptococcus sp.; [1]): <0.06 µg/mL | MIC Streptococcus pneumoniae (GC 1894) (Streptococcus sp.; [1]): <0.06 µg/mL | MIC Streptococcus pneumoniae (GC 4565) (Streptococcus sp.; [1]): <0.06 µg/mL | MIC Streptococcus pyogenes (GC 4563) (Streptococcus sp.; [1]): 0.25 µg/mL (≈ 0.162 µM) | MIC Enterococcus avium (GC 4558) (Enterococcus sp.; Enterococcus avium (GC 4558)): 32 µg/mL (≈ 20.7 µM) | MIC Enterococcus faecalis (ATCC 29212) (Enterococcus sp.; Enterococcus faecalis (ATCC 29212)): 32 µg/mL (≈ 20.7 µM) | MIC Enterococcus faecalis (GC 2242) (Enterococcus sp.; Enterococcus faecalis (GC 2242)): 32 µg/mL (≈ 20.7 µM) | MIC Enterococcus faecalis (GC 2691) (Enterococcus sp.; Enterococcus faecalis (GC 2691)): 32 µg/mL (≈ 20.7 µM) | MIC Enterococcus faecalis (GC 3059) (Enterococcus sp.; Enterococcus faecalis (GC 3059)): 32 µg/mL (≈ 20.7 µM) | MIC Enterococcus faecalis (GC 4552) (Enterococcus sp.; Enterococcus faecalis (GC 4552)): 32 µg/mL (≈ 20.7 µM) | MIC Enterococcus faecalis (GC 4553) (Enterococcus sp.; Enterococcus faecalis (GC 4553)): 16 µg/mL (≈ 10.4 µM) | MIC Enterococcus faecalis (GC 4554) (Enterococcus sp.; Enterococcus faecalis (GC 4554)): 32 µg/mL (≈ 20.7 µM) | MIC Enterococcus faecalis (GC 6189) (Enterococcus sp.; Enterococcus faecalis (GC 6189)): 32 µg/mL (≈ 20.7 µM) | MIC Enterococcus faecium (GC 2243) (Enterococcus sp.; Enterococcus faecium (GC 2243)): 16 µg/mL (≈ 10.4 µM) | MIC Enterococcus faecium (GC 4556) (Enterococcus sp.; Enterococcus faecium (GC 4556)): 32 µg/mL (≈ 20.7 µM) | MIC Enterococcus faecium (GC 4557) (Enterococcus sp.; Enterococcus faecium (GC 4557)): 32 µg/mL (≈ 20.7 µM) | MIC Enterococcus avium (GC 4558) (Enterococcus sp.; [1]): 32 µg/mL (≈ 20.7 µM) | MIC Enterococcus faecalis (ATCC 29212) (Enterococcus sp.; [1]): 32 µg/mL (≈ 20.7 µM) | MIC Enterococcus faecalis (GC 2242) (Enterococcus sp.; [1]): 32 µg/mL (≈ 20.7 µM) | MIC Enterococcus faecalis (GC 2691) (Enterococcus sp.; [1]): 32 µg/mL (≈ 20.7 µM) | MIC Enterococcus faecalis (GC 3059) (Enterococcus sp.; [1]): 32 µg/mL (≈ 20.7 µM) | MIC Enterococcus faecalis (GC 4552) (Enterococcus sp.; [1]): 32 µg/mL (≈ 20.7 µM) | MIC Enterococcus faecalis (GC 4553) (Enterococcus sp.; [1]): 16 µg/mL (≈ 10.4 µM) | MIC Enterococcus faecalis (GC 4554) (Enterococcus sp.; [1]): 32 µg/mL (≈ 20.7 µM) | MIC Enterococcus faecalis (GC 6189) (Enterococcus sp.; [1]): 32 µg/mL (≈ 20.7 µM) | MIC Enterococcus faecium (GC 2243) (Enterococcus sp.; [1]): 16 µg/mL (≈ 10.4 µM) | MIC Enterococcus faecium (GC 4556) (Enterococcus sp.; [1]): 32 µg/mL (≈ 20.7 µM) | MIC Enterococcus faecium (GC 4557) (Enterococcus sp.; [1]): 32 µg/mL (≈ 20.7 µM)
SMILES: CC(c1ccccc1)C1NC(=O)CNC(=O)C(CO)NC(=O)C(C(O)C2CNC(=N)N2C2OC(CO)C(O)C(O)C2O)NC(=O)C(C(O)C2CNC(=N)N2)NC(=O)C(Cc2ccc(OC3OC(CO)C(OC4OC5COC(c6cccc(Oc7cccc(C(F)(F)F)c7)c6)OC5C(O)C4O)C(O)C3O)cc2)NC1=O (stereo not shown) [Example 184]
MIC Staphylococcus haemolyticus (GC 4546) (Staphylococcus sp.; strain GC 4546): 32 µg/mL (≈ 20.7 µM)
